# According to paper PMC8958510 (Journal of Medicinal Chemistry, 2022):
# Columns and labels:
# [1] = target: T1, recombinant human sEH (Homo sapiens, UniProt P34913); assay: Human soluble epoxide hydrolase inhibition, fluorescence-based assay (CMNPC substrate); format: biochemical; conditions: recombinant human sEH; average of three replicates; read-out: hsEH IC50
# T1 sequence (P34913 1-555): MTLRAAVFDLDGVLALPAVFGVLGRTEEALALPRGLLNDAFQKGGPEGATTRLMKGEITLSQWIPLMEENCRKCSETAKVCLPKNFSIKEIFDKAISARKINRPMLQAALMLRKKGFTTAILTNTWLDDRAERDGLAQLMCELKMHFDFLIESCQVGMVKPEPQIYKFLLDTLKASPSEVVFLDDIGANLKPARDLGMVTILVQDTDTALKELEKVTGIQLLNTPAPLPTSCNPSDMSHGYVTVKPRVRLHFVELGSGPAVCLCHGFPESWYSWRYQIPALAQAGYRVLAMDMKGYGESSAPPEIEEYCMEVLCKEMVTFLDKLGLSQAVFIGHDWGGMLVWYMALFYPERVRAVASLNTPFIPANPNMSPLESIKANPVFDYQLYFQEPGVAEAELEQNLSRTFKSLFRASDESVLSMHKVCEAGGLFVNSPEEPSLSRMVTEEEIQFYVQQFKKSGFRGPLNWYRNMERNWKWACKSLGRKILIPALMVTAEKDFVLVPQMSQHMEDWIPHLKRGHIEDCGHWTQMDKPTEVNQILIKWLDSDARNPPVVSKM
# Description: Human and mouse soluble epoxide hydrolase inhibition assay. The inhibitory activity of
# the target compounds toward human and mouse sEH was determined by a fluorescence-based
# assay, using purified recombinant human or mouse sEH proteins and CMNPC as a fluorescent
# substrate.6 The enzymes were incubated at 30 °C with the inhibitors ([I]final = 0.4-100,000
# nM) for 5 min in 100 mM sodium phosphate buffer (200 µL, pH 7.4) containing 0.1 mg mL‒1
# of BSA and 1% of DMSO. The substrate (CMNPC) was then added ([S]final = 5 µM). Activity
# was assessed by measuring the appearance of the fluorescent 6-methoxynaphthaldehyde
# (Molecular Devices). Results were obtained by regression analysis from a linear region of the
# curve and are given as IC50 values, i.e., the concentration of the compound that reduces the
# sEH activity by 50%. All measurements were performed in triplicate and the mean is
# [2] = target: T2, human serum BChE (Homo sapiens, UniProt P06276); format: biochemical
# T2 construct: human serum BChE (Sigma-Aldrich, Milan, Italy) was assessed by Ellman’s method; purchased Sigma-Aldrich, Milan, Italy; host or cells: human serum
# T2 sequence (P06276 29-602): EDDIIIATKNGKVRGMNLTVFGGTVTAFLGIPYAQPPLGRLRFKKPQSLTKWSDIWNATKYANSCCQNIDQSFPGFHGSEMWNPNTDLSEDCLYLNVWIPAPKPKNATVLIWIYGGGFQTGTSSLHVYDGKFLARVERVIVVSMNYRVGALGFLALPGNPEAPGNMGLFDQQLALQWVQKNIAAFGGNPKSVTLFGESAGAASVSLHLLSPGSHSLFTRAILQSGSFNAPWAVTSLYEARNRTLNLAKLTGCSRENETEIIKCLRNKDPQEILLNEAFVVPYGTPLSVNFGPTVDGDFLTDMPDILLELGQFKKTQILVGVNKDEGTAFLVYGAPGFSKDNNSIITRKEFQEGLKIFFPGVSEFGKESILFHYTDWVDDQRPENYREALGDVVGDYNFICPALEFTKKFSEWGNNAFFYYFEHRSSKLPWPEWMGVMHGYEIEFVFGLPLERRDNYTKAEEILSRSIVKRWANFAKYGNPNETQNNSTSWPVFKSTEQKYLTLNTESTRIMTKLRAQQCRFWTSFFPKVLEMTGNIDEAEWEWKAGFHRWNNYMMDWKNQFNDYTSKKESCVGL
# Description: Human and mouse acetylcholinesterase and human butyrylcholinesterase inhibition
# assay. The inhibitory activity of the target compounds toward recombinant human AChE
# (Sigma-Aldrich, Milan, Italy), recombinant mouse AChE (Bio-Techne, Milan, Italy) and
# human serum BChE (Sigma-Aldrich, Milan, Italy) was assessed by Ellman’s method,8 using
# Stock solutions of the AChEs were prepared by
# dissolving enzyme lyophilized powder (hAChE) or diluting the enzyme commercial solution
# (mAChE) in 0.1 M potassium phosphate (pH 8.0) containing 0.1% Triton X-100, whereas the
# stock solution of hBChE was prepared in 0.1% aq. gelatin and the stock solutions of the
# compounds to be tested were made in MeOH (2-4 mM). The assay solution consisted of 0.02
# unit mL‒1 of the enzyme, 340 M 5,5’-dithiobis(2-nitrobenzoic acid), and 550 M of the
# substrate acetylthiocholine iodide (for AChE assay) or butyrylthiocholine iodide (for BChE
# assay) in 0.1 M potassium phosphate (pH 8.0). Blank solutions containing all components
# except the enzymes were prepared to account for the non-enzymatic hydrolysis of the
# Prior the addition of the substrate, the assay solutions were incubated at 37 °C for 20 min.
# After the addition of the substrate, cuvettes were rapidly transferred into a Jasco V-530
# double beam spectrophotometer equipped with thermostated cuvette holders (37 °C), in order
# for 240 s. For each tested compound, five increasing concentrations were assayed in order to
# achieve inhibition percentages of 20‒80%. Each concentration was assayed in triplicate. IC50
# values were calculated from the inhibition plot (% inhibition vs log[inhibitor]) and are
# expressed as mean ± SEM. Each IC50 value is the average of at least two experiments, each
# [3] = tested on: SH-SY5Y cells; assay: Cytotoxicity in SH-SY5Y cells, propidium iodide stain; format: cell-based, human
# Description: Cytotoxicity in SH-SY5Y cells. The cytotoxicity of the target compounds was evaluated in
# Minimum Essential Medium / Ham’s-F12 (1:1, v/v) medium (Biowest), supplemented with
# non-essential amino acids, 10% fetal bovine serum, 1 mM glutamine and 50 µg mL‒1
# gentamycin (all reagents from Gibco, Thermo Fisher Scientific). For the experiments, cells
# were seeded at 3 × 10^5 cells mL‒1 (100 µL per well) in 96-well plates (Nunc). After 24 h, the
# test compounds were added concentrated from stock solutions in DMSO and culture medium
# to triplicate wells to obtain the final different concentrations up to 100 µM in 0.1% DMSO.
# Compounds were incubated for further 24 h. At termination, cytotoxicity was analyzed by the
# propidium iodide (PI) fluorescence stain assay. All compounds were tested in three
# independent experiments using different cell passages. The PI assay measures cell death. PI
# enters into the cells with damaged membranes and greatly increases the fluorescence upon
# binding to DNA. PI reagent (Molecular Probes) at the final concentration of 7.5 µg mL‒1 was
# added to the cells and incubated for 1 h. The resulting fluorescence was measured by a Flx-
# death induced by the compounds was calculated from to the fluorescence of treated cells (Ft)
# relative to that of control cells (Fmin) and cells incubated with Triton X100 (Fmax) as the 0%
# and 100% cell death, respectively [% = ((Ft-Fmin)/(Fmax-Fmin)) × 100]. All compounds
# were tested in three independent experiments using different cell passages. LC50 values were
# calculated for each experiment and the results are expressed as mean ± SD.
# [4] = tested on: hippocampus of SAMP8 mice; assay: Hippocampal gene expression of inflammatory markers by qPCR in SAMP8 mice; format: in vivo, mouse; conditions: 2 mg kg^–1 day^–1 oral, 4 weeks, vs control
# Description: Compostela, Spain). The human, rat and mice pooled microsomes, with a protein content of 20 mg mL‒1, were purchased from Tebu-Xenotech. The compounds were incubated in a 96-well microplate at 37 °C with the microsomes in 50 mM phosphate buffer (pH = 7.4) containing as cofactors 30 mM MgCl2, 10 mM NADP, 100 mM glucose-6-phosphate and 40 […]
# Samples (75 µL) were taken from each well at 0, 10, 20, 40 and 60 min and transferred to a microplate. 4 °C Acetonitrile (75 µL) and internal standard (rolipram) were then added for inactivating the microsomes, and water with 0.5% formic acid (30 µL) was subsequently added for improving the chromatographic conditions, keeping the mixtures at 4 °C. The plate was centrifuged at 46,000 g for 30 min at 15 °C and supernatants were taken and analyzed in a UPLC-MS/MS system (UPLC QSM Waters Acquity) using reverse phase Acquity UPLC® HSST3 1.7 μm (2.1 mm × 50 mm, Waters) as the stationary phase, 0.1% formic acid in water (A) / 0.1% formic acid in acetonitrile (B) as the mobile phase, a flow of 0.8 mL min‒1, and the […]
# The metabolic stability of the compounds was calculated from the logarithm of the remaining compound at each of the time points studied.
# In Vivo Proof-of-Concept of the Dual sEH / AChE Inhibitor […] in SAMP8 Mice Animals and treatment. The senescence-accelerated mouse-prone 8 (SAMP8) is an accelerated aging model established through phenotypic selection from AKR/J mice by […]
# abnormal APP and β-amyloid processing and tau pathology, among others. Likewise, SAMP8 […]
# and oxidative stress markers are present at early ages and during adultness.15 In this work, 5-month-old male SAMP8 mice were used to perform behavioral and molecular analyses.
# Animals were randomly divided into SAMP8 control (n=8) and SAMP8 treated with 12c […]
# (n=8, 2 mg kg‒1 day‒1). The animals had free access to food and water and were kept under standard temperature conditions (22 ± 2 °C) and 12-h/12-h light/dark cycles (300 lux/0 lux).
# Compound 12c was dissolved in 1.8% (2-hydroxypropyl)-β-cyclodextrin (Sigma-Aldrich, St. […]
smiles,measurement,setting,value
"O=C(Nc1ccc(OC(F)(F)F)cc1)NC1CCN(C(=O)CCCCNc2c3c(nc4cc(Cl)ccc24)CCCC3)CC1 [12c, 1-{1-{5-[(6-Chloro-1,2,3,4-tetrahydroacridin-9-yl)amino]pentanoyl}piperidin-4-yl}-3-[4-(trifluoromethoxy)phenyl]urea]",IC50,[1],4.6 nM
same,hBChE potency relative to 6-chlorotacrine,[2],3 fold
same,IC50,"[2]; human serum BChE, mean ± SEM, n.a. = not active, % inhibition <10% at 100 μM, read-out: hBChE IC50",179 ± 90 nM
same,toxicity to SH-SY5Y cells LD50,"[3]; propidium iodide staining after 24 h of incubation, mean ± SD",>100 µM
same,LD50 (SH-SY5Y),[3]; supplementary CSV,> 100 ?M
same,Gfap gene expression,[4],tendency toward reduced gene expression
same,Il-1β gene expression,[4],tendency toward reduced gene expression
same,Il-6 gene expression,[4],significant reduction
